Test results reported in ChEMBL document CHEMBL1201862, “PubChem BioAssay data set” (2004).
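Cells were grown in 96-well plates and exposed to each compound for 48 hours at five concentrations; endpoints were interpolated linearly between bracketing concentrations, or set to the highest concentration if not reached. GI50: concentration for 50% inhibition of growth.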 Calls of active or inactive are those of the source. No stated cut-off is given here; in the data, active = GI50 up to about 1.1 µM and inactive = higher.

What was measured:
Test in all cases: NCI tumour cell line growth inhibition, 48 h
[1] = system: A549
[2] = system: SF-268
[3] = system: CCRF-CEM
[4] = system: KM12
[5] = system: HOP-92
[6] = system: OVCAR-4
[7] = system: SW-620
[8] = system: OVCAR-8
[9] = system: SR
[10] = system: NCI-H23
[11] = system: SK-OV-3
[12] = system: HCT-116
[13] = system: UACC-62
[14] = system: SF-295
[15] = system: OVCAR-3
[16] = system: MDA-MB-435
[17] = system: T47D
[18] = system: DU-145
[19] = system: MDA-N
[20] = system: BT-549

Measured: GI50

FC(F)(F)C1(Cl)C(c2ccccc2)=C1c1ccccc1
inactive: [1] 15.1 µM | [2] 16.9 µM | [3] 2.49 µM | [4] 15.6 µM | [5] 14.8 µM | [6] 13.5 µM | [7] 13.4 µM | [8] 14.9 µM | [9] 22.3 µM | [10] 15.7 µM | [11] 18.2 µM | [12] 13.9 µM | [13] 14 µM | [14] 14.9 µM | [15] 17.2 µM

COC(=O)C1C(OCc2ccccc2)C2CCC1(OC)C=C2C (stereo not given)
inactive: [1] > 100 µM | [2] > 100 µM | [3] 26.9 µM | [4] > 100 µM | [5] > 100 µM | [6] > 100 µM | [7] > 100 µM | [8] > 84.9 µM | [9] 17.8 µM | [10] > 88.5 µM | [11] > 100 µM | [12] 61.4 µM | [13] 64.6 µM | [14] > 79.6 µM | [15] > 51.6 µM

c1ccc2c(c1)cc(C1NCCc3nc[nH]c31)c1ccccc12 (stereo not given)
inactive: [1] 54.5 µM | [2] 77.1 µM | [3] 27.2 µM | [4] 47.6 µM | [5] > 44.4 µM | [6] 37.2 µM | [7] 25.5 µM | [8] > 68.9 µM | [9] 34.3 µM | [10] > 100 µM | [11] > 100 µM | [12] 21.1 µM | [13] 22.6 µM | [14] 56.2 µM | [15] > 61.9 µM

[N-]=[N+]=NC1(c2ccccc2)C(=O)C(Cl)=C(c2ccccc2)N(c2ccccc2)C1=O (stereo not given)
inactive: [1] > 100 µM | [2] > 100 µM | [3] 59.7 µM | [4] > 100 µM | [5] > 100 µM | [6] > 100 µM | [7] > 100 µM | [8] > 100 µM | [9] 65.5 µM | [10] 64.9 µM | [11] 31.3 µM | [12] > 100 µM | [13] > 100 µM | [14] > 100 µM | [15] 65.3 µM

COC(=O)C(CCc1ccccc1I)C1=CCC2(CC1)OCCO2 (stereo not given)
inactive: [1] 31 µM | [2] 57.9 µM | [16] 27.1 µM | [3] 14 µM | [4] 33.1 µM | [5] 30.4 µM | [6] 40.1 µM | [17] 15.8 µM | [7] 40.4 µM | [8] 42 µM | [9] 36.2 µM | [10] 30.7 µM | [11] > 100 µM | [18] 73.8 µM | [19] 24.2 µM | [13] 81.5 µM | [14] 36.9 µM | [15] 29.4 µM

O=C1NC2(CCCC2)C(=O)C12CCCC2
inactive: [1] > 100 µM | [2] > 100 µM | [3] > 100 µM | [4] > 100 µM | [5] > 100 µM | [6] > 100 µM | [7] > 100 µM | [8] > 100 µM | [9] > 100 µM | [10] > 100 µM | [11] > 100 µM | [12] > 100 µM | [13] > 100 µM | [14] > 100 µM | [15] > 100 µM

C#CCOCn1cnc2ncnc(N)c21
inactive: [1] > 100 µM | [2] > 100 µM | [3] > 100 µM | [4] > 100 µM | [5] > 100 µM | [6] > 100 µM | [7] > 100 µM | [8] > 100 µM | [9] > 100 µM | [10] > 100 µM | [11] > 100 µM | [12] > 100 µM | [13] > 100 µM | [14] > 100 µM | [15] > 100 µM

CC(=O)N(C)OC(=O)CC(=O)c1ccccc1
inactive: [1] > 100 µM | [2] > 100 µM | [3] > 100 µM | [4] > 100 µM | [5] > 100 µM | [6] > 100 µM | [7] > 100 µM | [8] > 100 µM | [9] > 100 µM | [10] > 100 µM | [11] > 100 µM | [12] > 100 µM | [13] > 100 µM | [14] > 100 µM | [15] > 100 µM

CC1=C2CCCC2=C/C(=N/Nc2ccc([N+](=O)[O-])cc2[N+](=O)[O-])CC1
inactive: [1] > 100 µM | [2] > 100 µM | [3] > 100 µM | [4] > 100 µM | [5] > 100 µM | [6] > 100 µM | [7] > 100 µM | [8] > 100 µM | [9] > 100 µM | [10] > 100 µM | [11] > 100 µM | [12] > 100 µM | [13] > 100 µM | [14] > 100 µM | [15] > 100 µM

CSC(SC)=C(C#N)C(=O)Nc1cccc(Cl)c1
inactive: [1] 65.9 µM | [2] > 100 µM | [16] > 100 µM | [20] 36.6 µM | [3] 33.1 µM | [4] > 100 µM | [5] 21 µM | [6] 27.9 µM | [7] 39.8 µM | [8] 48.8 µM | [11] 65.8 µM | [12] 30.6 µM | [19] 58.5 µM | [13] 59.6 µM | [14] 42.6 µM

CCOC(=O)NC1CN2CCC1CC2 (stereo not given)
inactive: [1] > 100 µM | [2] > 100 µM | [16] > 100 µM | [3] > 100 µM | [4] > 100 µM | [5] > 100 µM | [6] > 100 µM | [17] > 100 µM | [7] > 100 µM | [8] > 100 µM | [9] > 100 µM | [10] > 100 µM | [11] > 100 µM | [18] > 100 µM | [12] > 100 µM | [19] > 100 µM | [13] > 100 µM | [14] > 100 µM | [15] > 100 µM

COc1cc(C2c3cc4c(cc3[C@@H](Nc3ccccc3)C3CO[C@@H](OC)[C@H]23)OCO4)cc(OC)c1O (stereo not given in full)
inactive: [1] 2.13 µM | [2] 7.29 µM | [16] 9.79 µM | [3] 2.76 µM | [4] 5.83 µM | [6] > 25 µM | [17] 8.36 µM | [7] 6.52 µM | [8] 7.03 µM | [9] 1.95 µM | [11] 9.06 µM | [12] 7.38 µM | [14] 3.46 µM

O=c1cc(-c2ccccc2)oc2ccc(-c3ccc4oc(-c5ccccc5)cc(=O)c4c3)cc12
inactive: [1] 16.7 µM | [16] 17.8 µM | [20] > 10 µM | [3] 18 µM | [5] 14.4 µM | [6] 19.3 µM | [7] 30.5 µM | [8] 16.6 µM | [10] 15.7 µM | [11] 44.8 µM | [12] 15.9 µM | [19] 15.4 µM | [13] 14.9 µM | [14] 20.8 µM | [15] > 10 µM
